Experimental data: patent US10421774B2 (priority 2016, dated 2019)

What was measured:
[1] = tested on: T332S/V362I/Pr R41G virus; test: microbe, parasite or virus in culture; format: cell-based, HIV-1; conditions: genotype T332S/V362I/Pr41G, sensitivity relative to wt virus
How it was run: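 Renilla luciferase NL4-3 reporter virus (Gag P373S background) carrying Gag T332S/V362I plus protease R41G, inoculum normalized by luciferase signal, infected MT-2 cells (10,000/well). Compounds 3-fold diluted, 1% DMSO final. After 4–5 days at 37 °C, virus yield measured as Renilla luciferase activity in a multiple-cycle assay.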

[2] = tested on: V362I site directed mutant virus; test: Anti-viral sensitivity of site directed mutants, V362I; format: cell-based, HIV-1; conditions: genotype V362I, sensitivity relative to wt virus
Description: (§1) Viruses. NLRepRluc virus contains the Renilla luciferase marker in place of the viral nef gene. The proviral plasmid pNLRepRluc was constructed at Bristol-Myers Squibb, starting from a proviral NL4-3 clone (B subtype) that was obtained from the NIH AIDS Research and Reference Reagent Program. The parental recombinant wild type (WT) virus (NLRepRlucP373S) was derived from NLRepRluc and contains the additional substitution of P373 for serine in Gag (within the SP1 spacer), the most common 373 variation in subtype B. Other recombinant viruses (A364V, V370A/ΔT371 and the “T3325 triple” (T332S/V362I+HIV-1 protease R41G)) were generated by site-directed mutagenesis of plasmid pNLRepRlucP373S to introduce those amino acid substitutions in Gag and protease. […] Titers of virus stocks were determined using a luciferase assay (Dual-Luciferase® Reporter Assay System, Promega, Milwaukee, Wis., USA) endpoint.
(§2) Multiple cycle drug susceptibility assay. […] After 4-5 day incubation at 37° C./CO2, virus yields were determined by Renilla luciferase activity (Dual-Luciferase® Reporter Assay System, Promega). The endpoint luminescence was detected on a Wallac Trilux (PerkinElmer).
(§3) Starting from wt virus, the HIV protease R41G substitution was detected in one of three in vitro selections for resistance to the MI compound above along with Gag V362I and Gag T332S. […]

[3] = tested on: T332S site directed mutant virus; test: Anti-viral sensitivity of site directed mutants, T332S; format: cell-based, HIV-1; conditions: genotype T332S, sensitivity relative to wt virus
Description: as §1, §2, §3

[4] = tested on: HIV protease R41G site directed mutant virus; test: Anti-viral sensitivity of site directed mutants, HIV protease R41G; format: cell-based, HIV-1; conditions: genotype HIV protease R41G, sensitivity relative to wt virus
Description: as §1, §2, §3

[5] = tested on: T332S/V362I site directed mutant virus; test: Anti-viral sensitivity of site directed mutants, T332S/V362I; format: cell-based, HIV-1; conditions: genotype T332S/V362I, sensitivity relative to wt virus
Description: as §1, §2, §3

[6] = tested on: T332S/prR41G site directed mutant virus; test: Anti-viral sensitivity of site directed mutants, T332S/prR41G; format: cell-based, HIV-1; conditions: genotype T332S/prR41G, sensitivity relative to wt virus
Description: as §1, §2, §3

[7] = tested on: V362I/prR41G site directed mutant virus; test: Anti-viral sensitivity of site directed mutants, V362I/prR41G; format: cell-based, HIV-1; conditions: genotype V362I/prR41G, sensitivity relative to wt virus
Description: as §1, §2, §3

HIV-1 strain NL4-4 virus = test: Selection for resistance to the MI compound, EC50 for the starting virus; format: cell-based; conditions: Human immunodeficiency virus 1, read-out: EC50 for this virus
Description: T332sN362I/Pr R41G (N14.3, B Clade) virus′ was obtained as follows: Selection for resistance of HIV-1 strain […] virus with the HIV maturation inhibitor (MI) compound
At passage 8 virus was harvested and sequenced.

[8] = tested on: viruses that contain T332S and HIV protease R41G combinations, with and without V362I; test: Anti-viral sensitivity of site directed mutants, single and double combinations summarised in text; format: cell-based, HIV-1; conditions: viruses with only a single change
Description: Starting from wt virus, the HIV protease R41G substitution was detected in one of three in vitro selections for resistance to the MI compound above along with Gag V362I and Gag T332S. R41G is not a primary PI resistance substitution^i and is not present in the LANL database (2010). There is a single report of R41G associated with in vitro selection for resistance to an investigational PI^ii. […] A related change, R41K, is a common subtype B polymorph (27% of LANL database), and R41K may be involved in the emergence of protease resistance to an investigational protease inhibitor.^iii R41 is located in a loop proximal to the HIV-1 protease substrate binding site, and this change might act allosterically to facilitate closing the protease active site pocket over the substrate, thereby allowing catalysis. It might be that R41G alters the dynamics of the loop motion and the final positioning of the loop, which could cause the active site to better recognize the primary MI compound (above)-selected changes (V362I/T332S). An analysis of the V362I/T332S/Pr R41G substitutions, and their effects on MI compound susceptibility and viral growth, are described in the Table 1 below:
Viruses were constructed that contain T332S and HIV protease R41G combinations, with and without V362I.). […]

C=C(C)[C@@H]1CC[C@]2(NCCN3CCS(=O)(=O)CC3)CC[C@]3(C)[C@H](CC[C@@H]4[C@@]5(C)CC=C(c6ccc(C(=O)O)cc6)C(C)(C)[C@@H]5CC[C@]43C)[C@@H]12 [MI compound]
Fold wt [1]: 217
Fold wt [2]: 2.2
Fold wt [3]: 1.9
Fold wt [4]: 1.5
Fold wt [5]: 5.7
Fold wt [6]: 6.1
Fold wt [7]: 9.3
EC50 (HIV-1 strain NL4-4 virus): 2 nM
fold less sensitive [8]: 2 fold
